# Test system: normal human dermal fibroblasts (NHDF)
# Experiment: type I procollagen ELISA assay on culture medium of fibroblasts after 72 hours incubation
# Assay type: cell-based
# Settings: for Procollagen 1 / %/blank: NHDF, 72 hours; for Procollagen 1: DMEM containing 10% FCS, ELISA on culture medium; for %/blank: procollagen 1 relative to blank, DMEM 10% FCS
# Method: The efficacy of a combination in accordance with the invention is tested by assaying the procollagen 1. To do this, a composition in accordance with the invention is placed in contact with normal human dermal fibroblasts and the whole is left to incubate for 72 hours before assaying.
# The C-glycoside derivative used is C-β-D-xylopyranoside-2-hydroxypropane sold under the name Mexoryl® from Chimex. It is in the form of a solution containing 30% by weight of active material in a 60/40 water/1,2-propanediol mixture.
# • Normal human dermal fibroblasts (NHDF) (R8PF2), obtained from a mammary plasty • Type: pool PF2, used at the 8th passage • Culture: 37° C., 5% CO2 • Test culture medium: DMEM (Invitrogen 21969035) • L-glutamine 2 mM (Invitrogen 25030024) • Penicillin 50 IU/ml streptomycin 50 μg/ml (Invitrogen 15070063) • 10% Foetal calf serum (v/v, Invitrogen 10270098).
# The normal human dermal fibroblasts (R8PF2) are inoculated in whole DMEM medium and preincubated for 24 hours at 37° C. and 5% CO2. At 80% confluence, the culture medium is replaced with DMEM test medium containing 10% FCS with or without (blank) the products or mixtures to be tested or the reference (TGF-β). The cells are then incubated at 37° C. for 72 hours. Each experimental condition was performed in triplicate.
# After incubation, the culture media are harvested and the type I procollagen assay is performed on a sample of medium using a specific ELISA assay kit and according to the supplier's instructions (Procollagen Type I C-Peptide EIA Kit, Bio-Whittaker MK101). An MTT viability test is performed on the cell lawns.
Compound,Procollagen 1 (0.01 mg/ml) [ng/mL],%/blank (0.01 mg/ml) [%],"synthesis of procollagen 1 by the fibroblasts (in words) (tested at 0.01 mg/ml, culturing for 72 hours in DMEM medium containing 10% FCS)",Procollagen 1 (1 mM) [ng/mL],%/blank (1 mM) [%],"amount of procollagen 1 synthesized by the fibroblasts (in words) (tested at 1 mm, culturing for 72 hours in DMEM medium containing 10% FCS)"
"O=C1O[C@H]([C@@H](O)CO)C(O)=C1O [Ascorbic acid, ascorbic acid]",17052,887,significantly increases,,,
"CC(O)C[C@@H]1OC[C@@H](O)[C@H](O)[C@H]1O (stereo partly drawn) [C-Glycoside derivative, C-β-D-xylopyranoside-2-hydroxypropane]",,,,1838,96,does not significantly modify
